Results as given in patent US20240208992A1, “MACROCYCLES AS CFTR MODULATORS” (Idorsia Pharmaceuticals Ltd, priority 2021, published 2024).

Biological target: human F508del-CFTR (Homo sapiens, UniProt P13569, DEL508-508)
Assay: F508del-CFTR cell surface expression (corrector activity), DiscoveRx ß-galactosidase complementation chemiluminescence assay in recombinant U2OS cell line;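 also: U2OS cells co-expressing ProLink-tagged F508del-CFTR and a membrane-anchored enzyme acceptor, where more surface CFTR restores β-galactosidase activity measured by chemiluminescence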
Conditions: U2OS cell line, 16h compound incubation; for Emax: U2OS, in relation to the Emax of the corrector lumacaftor (=100%), arithmetic mean values; for EC50: EC50, F508del-CFTR cell surface expression, geomean values

Chain of human F508del-CFTR (P13569 with tags, fused parts or gaps DEL508-508): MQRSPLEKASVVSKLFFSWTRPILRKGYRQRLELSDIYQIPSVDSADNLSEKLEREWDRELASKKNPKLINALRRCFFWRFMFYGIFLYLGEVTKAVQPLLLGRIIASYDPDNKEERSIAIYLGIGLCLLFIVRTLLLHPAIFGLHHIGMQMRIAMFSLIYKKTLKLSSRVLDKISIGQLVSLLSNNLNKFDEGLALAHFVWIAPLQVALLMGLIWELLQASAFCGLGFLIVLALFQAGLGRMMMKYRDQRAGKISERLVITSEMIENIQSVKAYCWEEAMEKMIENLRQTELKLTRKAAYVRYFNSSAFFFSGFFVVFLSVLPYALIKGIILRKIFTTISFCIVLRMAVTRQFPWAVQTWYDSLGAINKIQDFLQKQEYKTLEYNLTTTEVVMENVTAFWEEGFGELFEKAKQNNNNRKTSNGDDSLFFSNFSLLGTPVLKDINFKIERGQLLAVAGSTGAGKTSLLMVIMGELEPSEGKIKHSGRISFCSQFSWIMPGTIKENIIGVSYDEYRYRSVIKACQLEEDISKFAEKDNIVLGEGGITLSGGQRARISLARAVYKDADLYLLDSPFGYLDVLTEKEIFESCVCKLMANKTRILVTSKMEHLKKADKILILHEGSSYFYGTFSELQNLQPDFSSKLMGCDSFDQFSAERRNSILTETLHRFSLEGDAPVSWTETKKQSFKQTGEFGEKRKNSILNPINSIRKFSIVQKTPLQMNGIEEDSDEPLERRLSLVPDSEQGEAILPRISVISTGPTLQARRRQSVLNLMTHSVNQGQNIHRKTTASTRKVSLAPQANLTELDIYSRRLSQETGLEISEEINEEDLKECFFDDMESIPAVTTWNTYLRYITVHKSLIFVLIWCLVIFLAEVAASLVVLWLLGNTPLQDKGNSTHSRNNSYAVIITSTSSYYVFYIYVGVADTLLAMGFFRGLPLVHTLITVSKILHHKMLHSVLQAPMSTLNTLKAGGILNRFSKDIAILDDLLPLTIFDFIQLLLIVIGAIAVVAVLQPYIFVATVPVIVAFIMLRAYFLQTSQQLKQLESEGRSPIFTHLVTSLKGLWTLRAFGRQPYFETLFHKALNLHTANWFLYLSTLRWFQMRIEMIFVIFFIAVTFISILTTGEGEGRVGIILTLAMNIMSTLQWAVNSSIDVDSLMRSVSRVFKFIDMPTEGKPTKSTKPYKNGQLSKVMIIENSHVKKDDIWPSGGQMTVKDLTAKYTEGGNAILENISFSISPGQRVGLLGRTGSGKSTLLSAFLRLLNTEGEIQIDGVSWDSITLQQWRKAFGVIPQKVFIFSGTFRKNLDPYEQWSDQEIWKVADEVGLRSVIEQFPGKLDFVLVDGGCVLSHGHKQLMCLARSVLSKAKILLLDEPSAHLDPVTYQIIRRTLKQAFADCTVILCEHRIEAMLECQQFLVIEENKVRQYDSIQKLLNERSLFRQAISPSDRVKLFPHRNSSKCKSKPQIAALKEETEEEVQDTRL

SMILES | Emax | EC50
COc1cccc2c1C(=O)N[C@H](C(=O)NCCc1nc3ccccc3o1)CC(=O)N(C)[C@@H](CC(C)C)C(=O)N(CCC1CCCCC1)CC(=O)N[C@H](Cc1ccccc1)CO2 (racemic) [Example 16, (3R,9S,13RS)-N-(2-(benzo[d]oxazol-2-yl)ethyl)-3-benzyl-7-(2-cyclohexylethyl)-9-isobutyl-16-methoxy-10-methyl-5,8,11,15-tetraoxo-2,3,4,5,6,7,8,9,10,11,12,13,14,15-tetradecahydrobenzo[p][1]oxa[4,7,10,14]tetraazacycloheptadecine-13-carboxamide] | 137% | –
Cc1csc(CCNC(=O)[C@@H]2CC(=O)N(C)[C@@H](CC(C)C)C(=O)N3CCCC[C@@H]3C(=O)N[C@H](Cc3ccccc3)COc3ccc4ncn(C)c4c3C(=O)N2)n1 (racemic) [Example 23, (8RS,12S,18aR,21R)-21-benzyl-12-isobutyl-5,11-dimethyl-N-(2-(4-methylthiazol-2-yl)ethyl)-6,10,13,19-tetraoxo-6,7,8,9,10,11,12,13,16,17,18,18a,19,20,21,22-hexadecahydro-5H,15H-imidazo[4′,5′:5,6]benzo[1,2-p]pyrido[2,1-f][1]oxa[4,7,10,14]tetraazacycloheptadecine-8-carboxamide] | 115% | –
Cc1cnc(CCNC(=O)[C@@H]2CC(=O)N(C)[C@@H](CC(C)C)C(=O)N3CCCC[C@@H]3C(=O)N[C@H](Cc3ccccc3)COc3ccc4ncn(C)c4c3C(=O)N2)s1 (racemic) [Example 24, (8RS,12S,18aR,21R)-21-benzyl-12-isobutyl-5,11-dimethyl-N-(2-(5-methylthiazol-2-yl)ethyl)-6,10,13,19-tetraoxo-6,7,8,9,10,11,12,13,16,17,18,18a,19,20,21,22-hexadecahydro-5H,15H-imidazo[4′,5′:5,6]benzo[1,2-p]pyrido[2,1-f][1]oxa[4,7,10,14]tetraazacycloheptadecine-8-carboxamide] | 131% | 823 nM
COc1ccc(CCNC(=O)[C@@H]2CC(=O)N(C)[C@@H](CC(C)C)C(=O)N3CCCC[C@@H]3C(=O)N[C@H](Cc3ccccc3)COc3ccc4ncn(C)c4c3C(=O)N2)cc1 (racemic) [Example 25, (8RS,12S,18aR,21R)-21-benzyl-12-isobutyl-N-(4-methoxyphenethyl)-5,11-dimethyl-6,10,13,19-tetraoxo-6,7,8,9,10,11,12,13,16,17,18,18a,19,20,21,22-hexadecahydro-5H,15H-imidazo[4′,5′:5,6]benzo[1,2-p]pyrido[2,1-f][1]oxa[4,7,10,14]tetraazacycloheptadecine-8-carboxamide] | 142% | 547 nM
CC(C)C[C@H]1C(=O)N2CCCC[C@@H]2C(=O)N[C@H](Cc2ccccc2)COc2ccc3ncn(C)c3c2C(=O)N[C@H](C(=O)NCCc2cccc(OC(F)F)c2)CC(=O)N1C (racemic) [Example 26, (8RS,12S,18aR,21R)-21-benzyl-N-(3-(difluoromethoxy)phenethyl)-12-isobutyl-5,11-dimethyl-6,10,13,19-tetraoxo-6,7,8,9,10,11,12,13,16,17,18,18a,19,20,21,22-hexadecahydro-5H,15H-imidazo[4′,5′:5,6]benzo[1,2-p]pyrido[2,1-f][1]oxa[4,7,10,14]tetraazacycloheptadecine-8-carboxamide] | 111% | 299 nM
CC(C)C[C@H]1C(=O)N2CCCC[C@@H]2C(=O)N[C@H](Cc2ccccc2)COc2ccc3ncn(C)c3c2C(=O)N[C@H](C(=O)NCCc2ccccc2)CC(=O)N1C (racemic) [Example 27, (8RS,12S,18aR,21R)-21-benzyl-12-isobutyl-5,11-dimethyl-6,10,13,19-tetraoxo-N-phenethyl-6,7,8,9,10,11,12,13,16,17,18,18a,19,20,21,22-hexadecahydro-5H,15H-imidazo[4′,5′:5,6]benzo[1,2-p]pyrido[2,1-f][1]oxa[4,7,10,14]tetraazacycloheptadecine-8-carboxamide] | 114% | 474 nM
CC(C)C[C@H]1C(=O)N2CCCC[C@@H]2C(=O)N[C@H](Cc2ccccc2)COc2ccc3ncn(C)c3c2C(=O)N[C@H](C(=O)NCCc2cccc(-n3nccn3)c2)CC(=O)N1C (racemic) [Example 28, (8RS,12S,18aR,21R)-N-(3-(2H-1,2,3-triazol-2-yl)phenethyl)-21-benzyl-12-isobutyl-5,11-dimethyl-6,10,13,19-tetraoxo-6,7,8,9,10,11,12,13,16,17,18,18a,19,20,21,22-hexadecahydro-5H,15H-imidazo[4′,5′:5,6]benzo[1,2-p]pyrido[2,1-f][1]oxa[4,7,10,14]tetraazacycloheptadecine-8-carboxamide] | 106% | –
COc1cccc(CCNC(=O)[C@@H]2CC(=O)N(C)[C@@H](CC(C)C)C(=O)N(C)CC(=O)N[C@H](Cc3ccccc3)COc3cc4c(cc3C(=O)N2)OCO4)c1OC (racemic) [Example 151, (7R,13S,17RS)-7-benzyl-N-(2,3-dimethoxyphenethyl)-13-isobutyl-11,14-dimethyl-9,12,15,19-tetraoxo-6,7,8,9,10,11,12,13,14,15,16,17,18,19-tetradecahydro-[1,3]dioxolo[4′,5′:4,5]benzo[1,2-p][1]oxa[4,7,10,14]tetraazacycloheptadecine-17-carboxamide] | 106% | –
COc1cc2c(cc1OC)C(=O)N[C@H](C(=O)NCCc1ccc3c(c1)CCO3)CC(=O)N(C)[C@@H](CC(C)C)C(=O)N(C)CC(=O)N[C@H](Cc1ccccc1)CO2 (racemic) [Example 152, (3R,9S,13RS)-3-benzyl-N-(2-(2,3-dihydrobenzofuran-5-yl)ethyl)-9-isobutyl-17,18-dimethoxy-7,10-dimethyl-5,8,11,15-tetraoxo-2,3,4,5,6,7,8,9,10,11,12,13,14,15-tetradecahydrobenzo[p][1]oxa[4,7,10,14]tetraazacycloheptadecine-13-carboxamide] | 133% | –
COc1cc2c(cc1OC)C(=O)N[C@H](C(=O)NCCc1ccc3c(c1)OCO3)CC(=O)N(C)[C@@H](CC(C)C)C(=O)N(CC[C@H]1CCCCO1)CC(=O)N[C@H](Cc1ccccc1)CO2 (racemic) [Example 155, (3R,9S,13S)-N-(2-(benzo[d][1,3]dioxol-5-yl)ethyl)-3-benzyl-9-isobutyl-17,18-dimethoxy-10-methyl-5,8,11,15-tetraoxo-7-(2-((RS)-tetrahydro-2H-pyran-2-yl)ethyl)-2,3,4,5,6,7,8,9,10,11,12,13,14,15-tetradecahydrobenzo[p][1]oxa[4,7,10,14]tetraazacycloheptadecine-13-carboxamide] | 144% | 260 nM
COc1cccc2c1C(=O)N[C@H](C(=O)NCCC1CCC(C)(C)CO1)CC(=O)N(C)[C@@H](CC(C)C)C(=O)N(CCC1CCCCC1)CC(=O)N[C@H](Cc1ccccc1)CO2 (mixture of isomers) [Example 157, (3R,9S,13S)-3-benzyl-7-(2-cyclohexylethyl)-N-((RS)-2-(5,5-dimethyltetrahydro-2H-pyran-2-yl)ethyl)-9-isobutyl-16-methoxy-10-methyl-5,8,11,15-tetraoxo-2,3,4,5,6,7,8,9,10,11,12,13,14,15-tetradecahydrobenzo[p][1]oxa[4,7,10,14]tetraazacycloheptadecine-13-carboxamide] | 121% | 395 nM
